From patent US9540391B2, “Isomannide derivatives as inhibitors of soluble epoxide hydrolase” (SANOFI, priority 2013, dated 2017) come the findings set out here.

Counter-ions that a name gives are not always drawn.

This test has as its target T1, recombinant sEH (Homo sapiens, UniProt P34913).
T1 construct: made in house; host or cells: Sf9 insect cells
T1 sequence (P34913 1-555): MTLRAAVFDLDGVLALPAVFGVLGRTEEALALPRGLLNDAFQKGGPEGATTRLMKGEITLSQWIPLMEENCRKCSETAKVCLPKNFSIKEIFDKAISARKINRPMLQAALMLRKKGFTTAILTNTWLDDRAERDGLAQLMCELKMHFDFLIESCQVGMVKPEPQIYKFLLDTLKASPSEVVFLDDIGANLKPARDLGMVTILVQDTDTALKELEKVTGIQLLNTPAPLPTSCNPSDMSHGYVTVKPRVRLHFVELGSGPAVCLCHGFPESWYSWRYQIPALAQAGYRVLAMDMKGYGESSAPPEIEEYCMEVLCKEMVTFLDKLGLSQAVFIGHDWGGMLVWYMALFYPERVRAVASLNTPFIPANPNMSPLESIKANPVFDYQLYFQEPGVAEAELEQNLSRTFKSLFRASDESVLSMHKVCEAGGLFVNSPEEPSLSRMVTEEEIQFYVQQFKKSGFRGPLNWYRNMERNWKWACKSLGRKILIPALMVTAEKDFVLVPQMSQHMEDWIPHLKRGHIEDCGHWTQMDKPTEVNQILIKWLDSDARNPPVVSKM
The test can be described thus: biochemical screening assay for inhibition of soluble epoxide hydrolase (fluorometric, Phome substrate). The gist of the method: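 Human sEH from Sf9 cells (2 nM final) was pre-incubated 15 min at 30 °C with compound (0.0001–10 μM), then reacted 60 min at 30 °C with 5 μM Phome in 25 mM Hepes/0.01% albumin. Fluorescence of released 6-methoxy-2-naphthaldehyde was read before substrate and at end; IC50 from % inhibition.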
`O=C(NC1CCCCC1)N[C@H]1CO[C@H]2[C@@H]1OC[C@@H]2Oc1cccc2ccc(N3CCCC3)nc12` [Example 137, 1-Cyclohexyl-3-[(3S,3aR,6S,6aS)-6-(2-pyrrolidin-1-yl-quinolin-8-yloxy)-hexahydro-furo[3,2-b]furan-3-yl]-urea; trifluoroacetate]: the IC50 (commonly the concentration needed to halve the response being measured) came to 0.004 µM.
With `Cc1ncccc1O[C@H]1CO[C@H]2[C@@H]1OC[C@@H]2NC(=O)NCc1cccc2c1OC(C)(C)C2` [Example 224, 1-(2,2-Dimethyl-2,3-dihydro-benzofuran-7-ylmethyl)-3-[(3S,3aR,6S,6aS)-6-(2-methyl-pyridin-3-yloxy)-hexahydro-furo[3,2-b]furan-3-yl]-urea] the figure was 0.039 µM; with `CCN(CC)c1ccc(O[C@H]2CO[C@H]3[C@@H]2OC[C@@H]3NC(=O)NC2CCCCC2)cn1` [Example 72, 1-Cyclohexyl-3-[(3S,3aR,6S,6aS)-6-(6-diethylamino-pyridin-3-yloxy)-hexa-hydro-furo[3,2-b]furan-3-yl]-urea], below 0.001 µM; with `Cc1ncccc1O[C@H]1CO[C@H]2[C@@H]1OC[C@@H]2NC(=O)NCc1ccc(Cl)s1` [Example 208, 1-(5-Chloro-thiophen-2-ylmethyl)-3-[(3S,3aR,6S,6aS)-6-(2-methyl-pyridin-3-yloxy)-hexahydro-furo[3,2-b]furan-3-yl]-urea], 0.015 µM.
For `Cc1ncccc1O[C@H]1CO[C@H]2[C@@H]1OC[C@@H]2NC(=O)NCC1C[C@@H]2CC[C@H]1O2` (stereo partly drawn) [Example 239, 1-[(3S,3aR,6S,6aS)-6-(2-Methyl-pyridin-3-yloxy)-hexahydro-furo[3,2-b]furan-3-yl]-3-[(1R,4S)-1-(7-oxa-bicyclo[2.2.1]hept-2-yl)methyl]-urea], the IC50 came out at 0.078 µM.
In the case of `C[C@@H](NC(=O)N[C@H]1CO[C@H]2[C@@H]1OC[C@@H]2Oc1ccc(F)cc1)C1CCCCC1` [Example 165, 1-((R)-1-Cyclohexyl-ethyl)-3-[(3S,3aR,6S,6aS)-6-(4-fluoro-phenoxy)-hexahydro-furo[3,2-b]furan-3-yl]-urea] it was 0.021 µM; in that of `Cc1ncccc1O[C@H]1CO[C@H]2[C@@H]1OC[C@@H]2NC(=O)NC1(C#N)CCOCC1` [Example 248, 1-(4-Cyano-tetrahydro-pyran-4-yl)-3-[(3S,3aR,6S,6aS)-6-(2-methyl-pyridin-3-yloxy)-hexahydro-furo[3,2-b]furan-3-yl]-urea], 3.5 µM; in that of `Cc1cc(C)cc(NC(=O)N[C@H]2CO[C@H]3[C@H](CCc4ccccc4)CO[C@@H]32)c1` [Example 353, 1-(3,5-Dimethyl-phenyl)-3-[(3S,3aR,6R)-6-((S)-phenethyl)-hexa-hydro-furo[3,2-b]furan-3-yl]-urea], 0.017 µM.
In the case of `Cc1ncccc1O[C@H]1CO[C@H]2[C@@H]1OC[C@@H]2NC(=O)NCC1CCC(=O)N1C` (stereo partly drawn) [Example 255, 1-(1-Methyl-5-oxo-pyrrolidin-2-ylmethyl)-3-[(3S,3aR,6S,6aS)-6-(2-methyl-pyridin-3-yloxy)-hexahydro-furo[3,2-b]furan-3-yl]-urea] it was 0.545 µM.
With `O=C(NCc1ccc(F)cc1)N[C@H]1CO[C@H]2[C@@H]1OC[C@@H]2C#Cc1ccsc1` [Example 304, 1-(4-Fluoro-benzyl)-3-((3S,3aR,6S,6aR)-6-thiophen-3-ylethynyl-hexahydro-furo[3,2-b]furan-3-yl)-urea] the figure was 0.279 µM; with `Cc1ncccc1O[C@H]1CO[C@H]2[C@@H]1OC[C@@H]2NC(=O)NCCN1CCCCC1=O` [Example 251, 1-[(3S,3aR,6S,6aS)-6-(2-Methyl-pyridin-3-yloxy)-hexahydro-furo[3,2-b]furan-3-yl]-3-[2-(2-oxo-piperidin-1-yl)-ethyl]-urea], 1.56 µM.
Consider `Cc1nnc(S[C@H]2CO[C@H]3[C@@H]2OC[C@@H]3NC(=O)NC2CCCCC2)o1` [Example 43, 1-Cyclohexyl-3-[(3S,3aR,6S,6aS)-6-(5-methyl-[1,3,4]oxadiazol-2-ylsulfanyl)-hexahydro-furo[3,2-b]furan-3-yl]-urea], for which the IC50 worked out at 0.086 µM.
With `Cc1cc(S[C@H]2CO[C@H]3[C@@H]2OC[C@@H]3NC(=O)NC2CCCCC2)nc(C)n1` [Example 61, 1-Cyclohexyl-3-[(3S,3aR,6S,6aS)-6-(2,6-dimethyl-pyrimidin-4-ylsulfanyl)-hexahydro-furo[3,2-b]furan-3-yl]-urea] the figure was below 0.001 µM; with `N#CC1COC2C(NC(=O)Nc3ccc(OCc4ccccc4)cc3)COC12` (centres unmarked) [Example 382], 0.339 µM; with `Cc1ncccc1O[C@H]1CO[C@H]2[C@@H]1OC[C@@H]2NC(=O)NC[C@@H]1C[C@@H]2C[C@H]([C@H]1C)C2(C)C` [Example 213, 1-[(3S,3aR,6S,6aS)-6-(2-Methyl-pyridin-3-yloxy)-hexahydro-furo[3,2-b]furan-3-yl]-3-((1R,2R,3R,5S)-2,6,6-trimethyl-bicyclo[3.1.1]hept-3-ylmethyl)-urea], 0.003 µM.
For the compound `O=C(Nc1ccccc1)NC1COC2C(CCc3ccsc3)COC12` [Example 363, 1-Phenyl-3-[(3S,3aR,6R)-6-((S)-2-thiophen-3-yl-ethyl)-hexahydro-furo[3,2-b]furan-3-yl]-urea], the IC50 turned out to be 0.025 µM.
In the case of `O=C(NC1CCCCC1)N[C@H]1CO[C@H]2[C@@H]1OC[C@@H]2/C=C\c1ccc2c(c1)OCO2` [Example 317, 1-[(3S,3aR,6S,6aR)-6-((Z)-2-Benzo[1,3]dioxol-5-yl-vinyl)-hexahydro-furo[3,2-b]furan-3-yl]-3-cyclohexyl-urea] it was 0.003 µM.
With `O=C(NC1CCCCC1)N[C@H]1CO[C@H]2[C@@H]1OC[C@@H]2Oc1cccc(Br)c1` [Example 139, 1-[(3S,3aR,6S,6aS)-6-(3-Bromo-phenoxy)-hexahydro-furo[3,2-b]furan-3-yl]-3-cyclohexyl-urea] the figure was 0.002 µM; with `Cc1ncccc1O[C@H]1CO[C@H]2[C@@H]1OC[C@@H]2NC(=O)N1CCCC(F)(F)C1` [Example 278, 3,3-Difluoro-piperidine-1-carboxylic acid [(3S,3aR,6S,6aS)-6-(2-methyl-pyridin-3-yloxy)-hexahydro-furo[3,2-b]furan-3-yl]-amide], 0.924 µM.
Take `Cc1ncccc1O[C@H]1CO[C@H]2[C@@H]1OC[C@@H]2NC(=O)NC1CCCN(C(=O)OC(C)(C)C)C1` (stereo partly drawn) [Example 81, 3-{3-[(3S,3aR,6S,6aS)-6-(2-methyl-pyridin-3-yloxy)-hexahydro-furo[3,2-b]furan-3-yl]-ureido}-piperidine-1-carboxylic acid tert-butyl ester]: the IC50 turned out to be 0.016 µM.
For the compound `O=C(NC1CCCCC1)N[C@H]1CO[C@H]2[C@@H]1OC[C@@H]2Oc1ccccc1` [Example 115, 1-Cyclohexyl-3-((3S,3aR,6S,6aS)-6-phenoxy-hexahydro-furo[3,2-b]furan-3-yl)-urea], the IC50 worked out at 0.003 µM.
In the case of `O=C(NC1CCOCC1)N[C@H]1CO[C@H]2[C@@H]1OC[C@@H]2Oc1ccc(F)cc1` [Example 170, 1-[(3S,3aR,6S,6aS)-6-(4-Fluoro-phenoxy)-hexahydro-furo[3,2-b]furan-3-yl]-3-(tetrahydro-pyran-4-yl)-urea] it was 0.103 µM.
In the case of `O=C(Nc1ccccc1-c1ccccc1)N[C@H]1CO[C@H]2[C@@H]1OC[C@@H]2C#Cc1ccsc1` [Example 307, 1-Biphenyl-2-yl-3-((3S,3aR,6S,6aR)-6-thiophen-3-ylethynyl-hexahydro-furo[3,2-b]furan-3-yl)-urea] it was 0.059 µM.
